# Key:
# Format in all cases: in vivo
# [1] = test system: A. gambiae sensu lato; assay: Dual choice attraction bioassay (Y-tube olfactometer); details: added to RBCs
# Experimental: Mosquitoes used in this study were from the laboratory colony of A. gambiae sensu lato (Keele line, University of Glasgow), which was produced by balanced interbreeding of four A. gambiae s.s. strains (H. Hurd, et al. Evolution, 59, 2560-2572 (2005)). Larvae were reared under standard insectary conditions (27±1° C., 70% humidity, 12 h light: 12 h dark cycle) and fed on TetraMin fish flakes (Tetra ltd., Germany). Pupae were transferred into holding cages for emergence. Emerged adults were fed ad libitum on 5% glucose solution, supplemented with 0.05% (w/v) 4-aminobenzoic acid (PABA, Sigma-Aldrich), through soaked filters on top of the 2 ml tubes and with soaked filter pads inside cages. Red blood cells (RBCs) were washed with Roswell Park Memorial Institute (RPMI) medium and stored in RPMI at 50% haematocrit at 4° C. until use. To measure the effect of HMBPP on mosquito fitness, RBCs stored in RPMI were centrifuged at 2500×g for 5 min followed by replacement of the medium with AB serum for a final haematocrit of 40%. HMBPP (stock concentration at 4 mM in Nanopure water, stored at −80° C.) was diluted to 10 μM in 1 ml RBC suspension, and the corresponding volume of Nanopure water was added to the control RBCs. All experiments were, unless otherwise stated, conducted on 5-7 days post-emergence female mosquitoes maintained in separated cages (approximately 210 individuals per cohort) and fed RBCs either with or without HMBPP for 30 min. All experiments were performed in triplicates.
# Initial experiments were performed using a Y-tube olfactometer (length of the central cylinder and two arms: 25/15/15 cm respectively, inner diameter: 5 cm; see FIG. 1a). For each experiment, 180 female mosquitoes were individually placed in a release chamber and flown one by one. Females flew towards the upwind end (airflow 3 L min^−1) and entered one of two trapping chambers through which odour released from nearby membrane feeders passed (5 cm distance to each trapping chamber). Three experiments were conducted. In the first experiment, the membrane feeders were loaded with RBCs with or without HMBPP, while in the second they were loaded with serum with or without HMBPP. The third experiment was performed with a 5% glucose with 0.05% PABA solution with or without HMBPP. To control for possible spatial effects, the location of treatment at each olfactometer arm was switched every 30 minutes (˜15 mosquitoes flied one by one in each 30 minutes). Each replacement (feeder rotation with fresh RBCs) was counted as an experimental replicate (experimental block). Mosquitoes reaching any of the trapping chambers were considered to have made a choice. Each experiment was repeated six times with in total 180 mosquitoes per treatment.
# [2] = test system: A. gambiae s.l.; assay: Olfactometer bioassay (larger Y-tube olfactometer / wind tunnel assay); details: RBCs+CO2 vs hRBCs, FIG. 2A
# Experimental: Behavioural experiments were performed using different odour sources with and without pulsed CO2 stimuli in a Plexiglas Y shaped olfactometer (9.5 cm i.d.×length of the central cylinder and two arms: 120/120/120 cm respectively), illuminated from above at 280 lx. A charcoal-filtered and humidified air stream (25±2° C., RH 65±2%) passed through stainless steel mesh screens at 30 cm s^−1 to generate a laminar flow in the olfactometer. Odors were introduced into the air stream of each arm at the downwind end. […] Odor sources consisted of either RBC-based treatments or headspace extracts. RBC-based treatments included RBCs alone, hRBCs, giRBCs or ippRBCs (RBCs supplemented with HMBPP, gametocytes or IPP), as well as RBCs with supernatants from gametocyte-infected RBCs, or RBCs supplemented with the synthetic odour blend. Headspace extracts collected from hRBCs and giRBCs were used. Treatments including RBCs were heated to 37° C. prior to being pumped (150 ml min^−1) into the airstream of each arm separately. The blend and headspace extracts were delivered to each arm via a wick dispenser. Carbon dioxide (Strandmöllen) was introduced into a plume generator that was placed behind the metal screens to create a homogenous-pulsed flow, which was regulated by a stimulus controller (SEC-2/b, Syntech, Löptin Germany). […]
# [3] = test system: A. gambiae sensu lato; assay: Fosmidomycin assay (feeding on media of FR-900098-treated, IPP-rescued parasite culture); details: supplemented with IPP, 90 s feeding, FIG. 1D
# Experimental: The fosmidomycin assay was carried out as previously described (12). 48 hours (h) after the initiation of antibiotic treatment (FR-900098, the N-acetyl analogue to fosmidomycin), asexual parasite cultures were rescued by supplementation with 200 μM IPP for 48 h of continued passaging. Media from the rescued culture were collected and offered to mosquitoes, in comparison with media from control parasites (without antibiotic treatment). Fifty mosquitoes, isolated in two separate cages, were offered different treatments. Each group was allowed to feed on its own membrane feeder for 90 s.
smiles,measurement,setting,value
"C/C(=C\CO)CO [(2E)-2-methylbut-2-ene-1,4-diol, reference compound]",effect on the attraction of mosquitoes to RBCs,[1],had no effect
"O=C=O [carbon dioxide, reference compound]",attraction to RBCs supplemented with carbon dioxide versus hRBCs,[2],not sufficient to reproduce the full mosquito attraction to hRBCs
CC(=O)N(O)CCCP(=O)(O)O [fosmidomycin derivative],mosquito feeding after block of HMBPP synthesis in tiRBCs,[3],reduction of feeding to control levels
